According to patent publication US20140079836A1, “METHODS AND COMPOSITIONS FOR ALTERING HEALTH, WELLBEING, AND LIFESPAN” (LifeSpan Extension, LLC, priority 2008, published 2014):

Legend:
[1] = tested on: Drosophila Melanogaster; test: Drosophila survival/longevity after antioxidant media; format: in vivo
Method: Drosophila cultures: A wingless variant of Drosophila Melanogaster was purchased from Carolina Biological Supply. These flies were fed nutrient media (Formula 4-24) and experimental flies were collected within 18 hours after hatching to ensure the females were virgin. Culture media: Flies were given a combination of the following: 1) Formula 4-24 without blue coloring for breeding and post exposure to antioxidants. […] 4) 20% sucrose solution on filter paper following AOX incubation to serve as a low nutrient media and known lifespan shortening agent. […] The flies remain in the antioxidant media for 12 days. […] All the flies are examined daily and media changed as required until all the flies have died. The date (post 12 day antioxidant incubation) is recorded. Lifespan results: The cumulative average lifespan of all flies for each group are then computed and compared against the cumulative average of the control (untreated) flies to determine if the Antioxidants increase lifespan. The average lifespan increase is separated by sex as well as combined for both sexes. This lifespan extension is expressed as a percent increase or decrease over control values. Culture media: […] Experimental phase: […] Lifespan results: The cumulative average lifespan of all flies for each group are then computed and compared against the cumulative average of the control (untreated) flies to determine if the antioxidants increase lifespan. The average lifespan increase is separated by sex as well as combined for both sexes.

[2] = tested on: telomerase; test: Quantitative telomerase detection (telomeric repeat formation + PCR) in skin fibroblasts (donor four AG7308, donor one AG14271) with or without UVB; format: cell-based, human
Method: Culture media: Cells were grown in Minimal Essential Medium supplemented with 10% fetal bovine serum, 2 mM L-glutamine, 2 mM Glutamax I, and 1× MEM non-essential amino acids solution. Cells were washed in the same medium, but without the fetal bovine serum. […] All cultures were incubated at 37° C. with 5% CO2 in a humidified chamber. Seeding of cells: […] Three wells were seeded per test condition or control. Experimental phase: On Day 3, wells were washed 1× with 2 mls medium, fed back 2 mls medium without fetal bovine serum and preincubated for 30-60 minutes before challenge with test or control conditions. […] The green tea polyphenols used were Premier Green Tea Extract Lot #10783, obtained from Pharma Cosmetix Research, LLC (Richmond, Va.). The Green Tea extract was measured into a stock solution of the above described Minimal Essential Media+1% Fetal Bovine Serum in a w/v ratio and then serially diluted into the testing concentrations with MEM+1% Fetal Bovine Serum. Three conditions were tested: […] UVB exposed and unexposed cells without test condition were used as controls. […] Cells from each test and control parameter were then trypsinized, collected by centrifugation, washed 3 times in PBS, and a cell count made using a hemacytometer. The final pellet was stored at −80° C. until processed further. UVB exposure: […] Cells were exposed from the bottom of the culture dish. The UVB dose delivered to the cells was adjusted for interference from the plastic in the culture dish. […] Extract from the cell pellets stored at −80 C post experimental phase was prepared for PCR according to the instructions in the Allied Biotech, Inc, Quantitative Telomerase Detection Kit. Briefly, pellets were thawed and immediately resuspended in 200 ul 1× Lysis Buffer per […]. The suspension was incubated on ice for 30 minutes, then microcentrifuged at 12,000×g for 30 minutes at 4° C. The supernatant was aliquoted and stored at −80° C. Detection of Telomerase: The extract from the cells allows for determination of telomerase activity by coupling the extract's ability to form telomeric repeats onto an oligonucleotide substrate and the resultant extended product are amplified using Polymerase Chain Reaction. These products are then visualized with SYBR green a fluorescent detection agent that emits green fluorescence when bound to the double stranded DNA product. […] The samples were run in a BioRad iCycler for 20 minutes at 25° C. to complete the telomerase reaction. The PCR initial activation step followed immediately and was of 10 minute duration at […]. […] The SYBR green detection occurred during the extension phase. Telomerase Detection Results: […] The raw analysis is provided in DATA TABLE 1. […] Culture media: Cells were grown in Minimal Essential Medium supplemented with 10% fetal bovine serum, 2 mM L-glutamine, 2 mM Glutamax I, and 1×MEM non-essential amino acids solution. Cells were washed in the same medium, but without the fetal bovine serum. […] All cultures were incubated at 37° C. with 5% CO2 in a humidified chamber. Seeding of cells: […] Three wells were seeded per test condition or control. Experimental phase: On Day 3, wells were washed 1× with 2 mls medium, fed back 2 mls medium without fetal bovine serum and preincubated for 30-60 minutes before challenge with test or control conditions. […] The 1% stock solution was also diluted with MEM+1% FBS until the testing concentrations were reached. Three conditions were tested: […] UVB exposed and unexposed cells without test condition were used as controls. […] Cells from each test and control parameter were then trypsinized, collected by centrifugation, washed 3 times in PBS, and a cell count made using a hemacytometer. The final pellet was stored at −80° C. until processed further. UVB exposure: […] Cells were exposed from the bottom of the culture dish. The UVB dose delivered to the cells was adjusted for interference from the plastic in the culture dish. […]

[3] = 0.01% antioxidant in media from hatching, antioxidant alone
[4] = 0.1% antioxidant in media from hatching, antioxidant alone
[5] = 1% antioxidant in media from hatching, antioxidant alone
[6] = 1% antioxidant media 12 days, then 20% Sucrose
[7] = 1% antioxidant media 12 days, then 20% Sucrose, vs 20% Sucrose
[8] = 1% antioxidant media 12 days, then H2O2 media
[9] = 1% antioxidant media 12 days, then H2O2 media, vs H2O2

With `COC1=C(OC)C(=O)C(CCCCCCCCCCO)=C(C)C1=O` [Idebenone, 6-(10-hydroxydecyl)-2,3-dimethoxy-5-methyl-1,4-benzoquin-one] the “average lifespan, Average of Both” value [1, 3] was 23.4 days, the “average lifespan, FEMALE” value [1, 3] was 23.4 days and the “average lifespan, Average of Both” value [1, 4] was 10.2 days. The “average lifespan, FEMALE” value [1, 4] was 10.2 days, the “average lifespan, Average of Both” value [1, 5] was 10 days and the “average lifespan, FEMALE” value [1, 5] was 12.4 days. The “average lifespan, MALE” value [1, 5] was 8.1 days, the “average lifespan, Average of Both” value [1, 6] was 11.89 days and the “average lifespan, FEMALE” value [1, 6] was 11.7 days. The “average lifespan, MALE” value [1, 6] was 12.11 days, the “% Change of lifespan over control, Average of Both” value [1, 7] was “+5%” and the “% Change of lifespan over control, FEMALE” value [1, 7] was −4%. The “% Change of lifespan over control, MALE” value [1, 7] was “+24%”, the “average lifespan, Average of Both” value [1, 8] was 5.75 days and the “average lifespan, FEMALE” value [1, 8] was 5.50 days. The “average lifespan, MALE” value [1, 8] was 5.32 days, the “% Change of lifespan over control, Average of Both” value [1, 9] was “+8%” and the “% Change of lifespan over control, FEMALE” value [1, 9] was −7%. For the same molecule, the “% Change of lifespan over control, MALE” value [1, 9] was “+8%”, the Level of telomerase ([2]; donor four UVB + agent 4 hr, compared to UVB Tx Control) was −1.07 and the Level of telomerase ([2]; donor four UVB + agent 4 hr, compared to UnTx Control) was 90.51. The Level of telomerase ([2]; donor four UVB + agent Continuous, compared to UVB Tx Control) was −1.00, the Level of telomerase ([2]; donor four UVB + agent Continuous, compared to UnTx Control) was 97.01 and the “less telomerase activity than untreated cells” value ([2]; donor four cells given Idebenone) was “roughly 53%”. It also gave a telomerase activity ([2]; donor four cells given Idebenone and 1 MED UVB vs UVB stressed cells alone) of −1.7 fold, a telomerase activity ([2]; donor four cells given Idebenone and 1 MED UVB vs untreated cells) of −2.4 fold and a Level of telomerase ([2]; donor four idebenone Vs. person idebenone 4 hr) of 1.46. For the same molecule, the telomerase activity ([2]; donor one cells given Idebenone and 1 MED UVB vs UVB treated age matched controls) was −2.65 fold, the telomerase activity ([2]; donor one cells given Idebenone and 1 MED UVB vs untreated controls) was “roughly −2.61 fold” and the “telomerase activity (summary in words)” value ([2]; stressed (UVB) and unstressed cells) was “decreased level of telomerase activity”.
